A short description of the assay: Inhibition of Rac1 GTPase in human MDA-MB-231 cells assessed as inhibition of cell proliferation treated for 72 hrs by MTT assay. In general terms: Tetrazolium assays rely on reduction of a dye to a coloured formazan, in cell work by metabolically active cells.

For the compound `Cc1cc(C)cc(NC(=N)Nc2ccccc2C(F)(F)F)c1`, the IC50 – broadly, the concentration needed to halve the response being measured – amounted to 21 µM.

Source of the values: BindingDB's records for PubMed 34236862 (Lodz University of Technology, 2021).
